# Structures can show the parent of a compound that is named as a salt.
# Key:
# CYPIR = assay: Example I: postemergence foliar-applied herbicidal mixtures, direct seeded rice, CYPIR; type: in vivo, Cyperus iria (rice flatsedge)
# LEFCH [1] = assay: Example I: postemergence foliar-applied herbicidal mixtures, direct seeded rice, LEFCH; type: in vivo, Leptochloa chinensis (Chinese sprangletop)
# Experimental: (§7) The soil matrix was contained in plastic pots with a volume of 1 quart and a surface area of 83.6 square centimeters (cm^2). […] The plants were grown for 8-22 days in a greenhouse with an approximate 14 h photoperiod which was maintained at about 29° C. during the day and 26° C. during the night. Nutrients (Peters Excel® 15-5-15 5-Ca 2-Mg and iron chelate) were applied in the irrigation solution as needed and water was added on a regular basis. Supplemental lighting was provided with overhead metal halide 1000-Watt lamps as necessary. The plants were employed for testing when they reached the first through fourth true leaf stage.
# (§8) Treatments consisted of the acid or esters of 4-amino-3-chloro-5-fluoro-6-(4-chloro-2-fluoro-3-methoxy-phenyl)pyridine-2-carboxylic acid (Compound A), each formulated as an SC (suspension concentrate), and various herbicidal components alone and in combination. Forms of compound A were applied on an acid equivalent basis.
# (§9) For treatments comprised of formulated compounds, measured amounts of compounds were placed individually in 25 mL glass vials and diluted in a volume of 1.25% (v/v) Agri-Dex® crop oil concentrated to obtain 12× stock solutions. […] Application solutions were prepared by adding an appropriate amount of each stock solution (e.g., 1 mL) and diluted to the appropriate final concentrations with the addition of 10 mL of an aqueous mixture of 1.25% (v/v) crop oil concentrate so that the final spray solutions contained 1.25+/−0.05% (v/v) crop oil concentrate.
# (§10) All stock solutions and applications solutions were visually inspected for compound compatibility prior to application. Spray solutions were applied to the plant material with an overhead Mandel track sprayer equipped with a 8002E nozzles calibrated to deliver 187 L/ha over an application area of 0.503 m^2 at a spray height of 18 to 20 inches (46 to 50 cm) above average plant canopy height. Control plants were sprayed in the same manner with the solvent blank.
# (§11) The treated plants and control plants were placed in a greenhouse as described above and watered by sub-irrigation to prevent wash-off of the test compounds. After approximately 3 weeks, the condition of the test plants as compared with that of the untreated plants was determined visually and scored on a scale of 0 to 100 percent where 0 corresponds to no injury or growth inhibition and 100 corresponds to complete kill.
# (§12) Colby's equation was used to determine the herbicidal effects expected from the mixtures (Colby, S. R. 1967. Calculation of the synergistic and antagonistic response of herbicide combinations. Weeds 15:20-22).
# (§13) The following equation was used to calculate the expected activity of mixtures containing two active ingredients, A and B: Expected=A+B−(A×B/100)
# (§14) A=observed efficacy of active ingredient A at the same concentration as used in the mixture.
# (§15) B=observed efficacy of active ingredient B at the same concentration as used in the mixture.
# IPOHE = assay: Example I: postemergence foliar-applied herbicidal mixtures, direct seeded rice, IPOHE; type: in vivo, Ipomoea hederacea (ivyleaf morningglory)
# Experimental: as §7, §8, §9, §10, §11, §12, §13, §14, §15
# CYPRO = assay: Example II: in-water applied herbicidal mixtures, weed control in transplanted paddy rice (greenhouse), CYPRO; type: in vivo, Cyperus rotundus (purple nutsedge); conditions: for Visual Weed Control (%) Obs: 20 DAA; for Visual Weed Control (%) - 22 DAA CYPRO Obs / Visual Weed Control (%) - 20 DAA CYPRO Obs: in-water application
# Experimental: (§1) The prepared mud was dispensed in 365 mL aliquots into 16-ounce (oz.) non-perforated plastic pots with a surface area of 86.59 square centimeters (cm^2) leaving a headspace of 3 centimeters (cm) in each pot Mud was allowed to dry overnight prior to planting or transplanting. Rice seeds were planted in Sun Gro MetroMix® 306 planting mixture, which typically has a pH of 6.0 to 6.8 and an organic matter content of about 30 percent, in plastic plug trays. Seedlings at the second or third leaf stage of growth were transplanted into 840 mL of mud contained in 32-oz. non-perforated plastic pots with a surface area of 86.59 cm^2 4 days prior to herbicide application. […] Nutrients were added as Osmocote® (19:6:12, N:P:K^+ minor nutrients) at 2 g per 16-oz. pot and 4 g per 32-oz. pot.
# (§2) Applications were made by injecting with a pipetter appropriate amounts of the application solutions, individually and sequentially, into the aqueous layer of the paddy. Control plants were treated in the same manner with the solvent blank. Applications were made so that all treated plant material received the same concentrations of acetone and crop oil concentrate.
# ECHCG [2] = assay: Example II: in-water applied herbicidal mixtures, transplanted paddy rice, ECHCG; type: in vivo, Echinochloa crus-galli (barnyardgrass); conditions: for Visual Weed Control (%) - 22 DAA ECHCG Obs: in-water application
# Experimental: as §1, §2
# ECHOR = assay: Example II: in-water applied herbicidal mixtures, transplanted paddy rice, ECHOR; type: in vivo, Echinochloa oryzoides (early watergrass)
# Experimental: as §1, §2
# LEFCH [3] = assay: Example II: in-water applied herbicidal mixtures, transplanted paddy rice, LEFCH; type: in vivo, Leptochloa chinensis (Chinese sprangletop)
# Experimental: as §1, §2
# SCPMA = assay: Example II: in-water applied herbicidal mixtures, transplanted paddy rice, SCPMA; type: in vivo; conditions: for Visual Weed Control (%) Obs: 20 DAA
# Experimental: as §1, §2
# ECHCG [4] = assay: Example I: postemergence foliar-applied herbicidal mixtures, direct seeded rice, ECHCG; conditions: 16 gae/ha
# Experimental: as §7, §8, §9, §10, §11, §12, §13, §14, §15
# CENMA = assay: Example V: postemergence herbicidal activity of mixtures in forage crops, CENMA; type: in vivo, Centaurea maculosa (spotted knapweed); conditions: alone, foliar, approximately 21 days
# Experimental: (§3) Seeds or root cuttings of the desired test plant species were planted in Sun Gro MetroMix® 306 planting mixture, which typically has a pH of 6.0 to 6.8 and an organic matter content of about 30 percent, in plastic pots with a surface area of 126.6 square centimeters (cm^2). […] The plants were grown for 14-60 days in a greenhouse with an approximate 14 hour photoperiod which was maintained at approximately 28° C. during the day and 24° C. during the night.
# (§4) Spray solutions of the second herbicide or experimental compound mixtures were prepared by adding the stock solutions to the appropriate amount of dilution solution to form 12 mL spray solution with active ingredients in two-way combinations.
# SINAR = assay: Example V: postemergence herbicidal activity of mixtures in forage crops, SINAR; type: in vivo, Sinapis arvensis (wild mustard); conditions: alone, foliar, approximately 21 days
# Experimental: as §3, §4
# TRFRE = assay: Example V: postemergence herbicidal activity of mixtures in forage crops, TRFRE; type: in vivo, Trifolium repens (white clover); conditions: alone, foliar, approximately 21 days
# Experimental: as §3, §4
# SCPJU = assay: Example II: in-water applied herbicidal mixtures, transplanted paddy rice, SCPJU; type: in vivo, Schoenoplectus juncoides (Japanese bulrush); conditions: 25 DAA
# Experimental: as §1, §2
# BRSNN = assay: Example IV: postemergence foliar-applied herbicidal mixtures, cereal crops, BRSNN; type: in vivo, Brassica napus (volunteer canola); conditions: for BRSNN Ob (observed value): alone, foliar, 20-22 days
# Experimental: (§5) Seeds of the desired test plant species were planted in Sun Gro MetroMix 306 planting mixture, which typically has a pH of 6.0 to 6.8 and an organic matter content of about 30 percent, in plastic pots with a surface area of 103.2 square centimeters (cm^2). […] The plants were grown for 7-36 days in a greenhouse with an approximate 14 hour photoperiod which was maintained at about 18° C. during the day and 17° C. during the night.
# (§6) Spray solutions of the second cereal herbicide and experimental compound mixtures were prepared by adding the stock solutions to the appropriate amount of dilution solution to form 12 mL spray solution with active ingredients in two- and three-way combinations.
# VIOTR = assay: Example IV: postemergence foliar-applied herbicidal mixtures, cereal crops, VIOTR; type: in vivo, Viola tricolor (wild pansy); conditions: 140 gai/ha
# Experimental: as §5, §6
# POLCO = assay: Example IV: postemergence foliar-applied herbicidal mixtures, cereal crops, POLCO; type: in vivo, Polygonum convolvulus (wild buckwheat); conditions: alone, 140 gai/ha, foliar, 20-22 days
# Experimental: as §5, §6
# CASOB = assay: Example V: postemergence herbicidal activity of mixtures in forage crops (greenhouse), CASOB; type: in vivo, Cassia obtusifolia (sicklepod); conditions: alone, 50 gae/ha, foliar, approximately 21 days
# Experimental: as §3, §4
# [5] = 280 gai/ha, in-water application
# [6] = 240 gae/ha, in-water application
smiles,measurement,setting,value
"COC(=O)c1nc(-c2ccc(Cl)c(OC)c2F)cc(N)c1Cl [Halauxifen-Methyl Ester, methyl 4-amino-3-chloro-6-(4-chloro-2-fluoro-3-methoxyphenyl)picolinate, reference compound]",Visual Weed Control (%) - 20 DAA CYPIR Obs,CYPIR; 2.19 gae/ha,25%
same,Visual Weed Control (%) - 20 DAA CYPIR Obs,CYPIR; 4.38 gae/ha,70%
same,Visual Weed Control (%) - 20 DAA LEFCH Obs,LEFCH [1]; 2.19 gae/ha,0%
same,Visual Weed Control (%) - 20 DAA LEFCH Obs,LEFCH [1]; 4.38 gae/ha,10%
same,Visual Weed Control (%) - 20 DAA IPOHE Obs,IPOHE; 2.19 gae/ha,0%
same,Visual Weed Control (%) - 20 DAA IPOHE Obs,IPOHE; 4.38 gae/ha,0%
same,Visual Weed Control (%) Obs,CYPRO; 4.38 gae/ha,70%
same,Visual Weed Control (%) Obs,CYPRO; 8.75 gae/ha,50%
same,Visual Weed Control (%) Obs,"ECHCG [2]; 20 DAA, 4.38 gae/ha",50%
same,Visual Weed Control (%) Obs,"ECHCG [2]; 20 DAA, 8.75 gae/ha",60%
same,pest or weed control at 4.38 g/ha,"ECHOR; Echinochloa oryzoides, 480 h, 20 DAA, 4.38 gae/ha, read-out: Visual Weed Control (%) Obs",25%
same,pest or weed control at 8.75 g/ha,"ECHOR; Echinochloa oryzoides, 480 h, 20 DAA, 8.75 gae/ha, read-out: Visual Weed Control (%) Obs",35%
CCCCOC(=O)c1nc(-c2ccc(Cl)c(OC)c2F)c(F)c(N)c1Cl [Compound A n-Butyl Ester],Visual Weed Control (%) Obs,"ECHOR; 19 DAA, 35 gae/ha",80%
same,Visual Weed Control (%) Obs,"LEFCH [3]; 19 DAA, 35 gae/ha",43%
same,Visual Weed Control (%) Obs,SCPMA; 35 gae/ha,0%
same,Visual Weed Control (%) Obs,SCPMA; 70 gae/ha,0%
same,Visual Weed Control (%) - 19 DAA ECHCG Obs,ECHCG [4],65%
"CCCCC(CC)COC(=O)COc1ccc(Cl)cc1C (stereo not drawn) [MCPA EHE, 2-ethylhexyl 2-(4-chloro-2-methylphenoxy)acetate, reference compound]",Visual Weed Control (%) - 19 DAA ECHOR Obs,ECHOR; [5],30%
same,Visual Weed Control (%) Obs,"LEFCH [3]; 19 DAA, 280 gai/ha",0%
same,Visual Weed Control (%) - 19 DAA LEFCH Obs,LEFCH [3]; [5],0%
"CCCCC(CC)COC(=O)COc1ccc(Cl)cc1Cl (stereo not drawn) [2,4-D EHE, 2-ethylhexyl 2-(2,4-dichlorophenoxy)acetate, reference compound]",Visual Weed Control (%) - 22 DAA CYPRO Obs,CYPRO; 140 gae/ha,0%
same,Visual Weed Control (%) - 22 DAA CYPRO Obs,CYPRO; 280 gae/ha,0%
same,Visual Weed Control (%) - 22 DAA ECHCG Obs,ECHCG [2]; 140 gae/ha,0%
same,Visual Weed Control (%) - 22 DAA ECHCG Obs,ECHCG [2]; 280 gae/ha,0%
same,Visual Weed Control (%) - 22 DAA ECHOR Obs,"ECHOR; 140 gae/ha, in-water application",0%
same,Visual Weed Control (%) - 22 DAA ECHOR Obs,"ECHOR; 280 gae/ha, in-water application",0%
"Nc1nc(C2CC2)nc(C(=O)O)c1Cl [Aminocyclopyrachlor, 6-amino-5-chloro-2-cyclopropyl-4-pyrimidinecarboxylic acid, reference compound]",CENMA Obs (observed value),CENMA; 8.75 gae/ha,55%
same,CENMA Obs (observed value),CENMA; 17.5 gae/ha,60%
same,SINAR Obs (observed value),SINAR; 8.75 gae/ha,25%
same,SINAR Obs (observed value),SINAR; 17.5 gae/ha,45%
same,TRFRE Obs (observed value),TRFRE; 8.75 gae/ha,45%
same,TRFRE Obs (observed value),TRFRE; 17.5 gae/ha,55%
"O=C(O)COc1nc(Cl)c(Cl)cc1Cl [Triclopyr TEA Salt, 2-[(3,5,6-trichloro-2-pyridinyl)oxy]acetic acid compound with N,N-diethylethanamine, reference compound]",Visual Weed Control (%) Obs,"ECHCG [2]; 25 DAA, 70 gae/ha",0%
same,Visual Weed Control (%) Obs,"ECHCG [2]; 25 DAA, 140 gae/ha",0%
same,pest or weed control at 280 g/ha,"ECHOR; Echinochloa oryzoides, 456 h, 19 DAA, 280 gae/ha, read-out: Visual Weed Control (%) Obs",35%
same,pest or weed control at 70 g/ha,"ECHOR; Echinochloa oryzoides, 600 h, 25 DAA, 70 gae/ha, read-out: Visual Weed Control (%) Obs",0%
same,pest or weed control at 140 g/ha,"ECHOR; Echinochloa oryzoides, 600 h, 25 DAA, 140 gae/ha, read-out: Visual Weed Control (%) Obs",0%
same,Visual Weed Control (%) Obs,"LEFCH [3]; 25 DAA, 70 gae/ha",0%
same,Visual Weed Control (%) Obs,"LEFCH [3]; 25 DAA, 140 gae/ha",0%
same,Visual Weed Control (%) Obs,SCPJU; 70 gae/ha,20%
same,Visual Weed Control (%) Obs,SCPJU; 140 gae/ha,30%
"C[C@@H](Oc1ccc(Cl)cc1Cl)C(=O)O [Dichlorprop-P, (2R)-2-(2,4-dichlorophenoxy)propanoic acid]",Weed Control Ob,"BRSNN; after 20-22 days, 140 gai/ha",57%
same,Weed Control Ob,VIOTR; after 20-22 days,27%
Nc1c(Cl)c(Cl)nc(C(=O)[O-])c1Cl.[K+] [Picloram K^+ Salt],CENMA Obs (observed value),CENMA; 35 gae/ha,20%
same,CENMA Obs (observed value),CENMA; 70 gae/ha,50%
same,SINAR Obs (observed value),SINAR; 35 gae/ha,30%
same,SINAR Obs (observed value),SINAR; 70 gae/ha,70%
"Cc1cc(Cl)ccc1O[C@H](C)C(=O)O [Mecoprop, (2R)-2-(4-chloro-2-methylphenoxy)propanoic acid]",BRSNN Ob (observed value),BRSNN; 200 gai/ha,70%
"Cc1cc(Cl)ccc1OCC(=O)O [MCPA, 2-(4-chloro-2-methylphenoxy)acetic acid]",BRSNN Ob (observed value),BRSNN; 140 gai/ha,70%
same,POLCO Ob (observed value),POLCO,0%
same,VIOTR Ob (observed value),"VIOTR; alone, foliar, 20-22 days",40%
"O=C(O)COc1ccc(Cl)cc1Cl [2,4-D Choline Salt, 2-hydroxy-N,N,N-trimethylethanaminium 2-(2,4-dichlorophenoxy)acetate, reference compound]",Visual Weed Control (%) - 20 DAA CYPRO Obs,CYPRO; 240 gae/ha,30%
same,Visual Weed Control (%) - 20 DAA CYPRO Obs,CYPRO; 480 gae/ha,30%
same,Visual Weed Control (%) - 20 DAA ECHOR Obs,ECHOR; [6],0%
same,Visual Weed Control (%) - 20 DAA ECHOR Obs,"ECHOR; 480 gae/ha, in-water application",20%
same,Visual Weed Control (%) - 20 DAA SCPMA Obs,SCPMA; [6],0%
same,CASOB Obs (observed value),CASOB,3%

# From US8912120B2, “Herbicidal compositions comprising 4-amino-3-chloro-5-fluoro-6-(4-chloro-2-fluoro-3-methoxyphenyl) pyridine-2-carboxylic acid or a derivative thereof and synthetic auxin herbicides” (Dow AgroSciences, LLC., priority 2012, dated 2014)
